Measurements: patent US10632134B2, “Cannabinoid receptor modulators” (Arena Pharmaceuticals, Inc., priority 2011, dated 2020)

Key:
[1] = test system: Paclitaxel-induced allodynia; assay: Paclitaxel-induced allodynia in Sprague Dawley rats (von Frey assay); assay type: in vivo
Procedure: Example 5: Paclitaxel-induced Allodynia in Sprague Dawley Rats
Therapy however is often associated with the unwanted side affects of painful peripheral neuropathy.
Male Sprague Dawley rats [200-250 g] (Harlan Laboratories Inc., Livermore, Calif.) were housed three per cage and maintained in a humidity-controlled (40-60%) and temperature-controlled (68-72° F.) facility on a 12 h:12 h light/dark cycle (lights on at 6:30 am) with free access to food (Harlan Teklad, Orange, Calif., Rodent Diet 8604) and water. Rats were allowed one week of habituation to the animal facility before starting treatment.
Rats were treated intraperitoneally, with 2 mg/kg of paclitaxel (Sigma Aldrich, Saint Louis, Mo.) in 10% Cremophor vehicle (500 μL) on days 0, 2, 4, and 6.
Tactile allodynia was tested using von Frey filaments. Briefly, the von Frey assay was performed using the standardized up down method with von Frey filaments, that determine the tactile sensitivity of the paw. By applying the increasingly or decreasingly thicker filaments to the paw in a logarithmic scale of actual force, a linear scale of perceived intensity is determined.
Eight days after the start of paclitaxel dosing, a baseline measurement (von Frey assay) was performed prior to dosing of compounds. […] As a positive control, rats were dosed intraperitoneally with 100 mg/kg gabapentin in water. […]

[2] = Dynamic moisture-sorption (DMS) analysis; assay type: physicochemical
Procedure: Example 9: Dynamic Moisture-Sorption Analysis
A dynamic moisture-sorption (DMS) study was conducted using a dynamic moisture-sorption analyzer, VTI Corporation, SGA-100. The instrument was calibrated using polyvinyl pyrrolidone (PVP) and NaCl. Samples were prepared for DMS analysis by placing 5 mg to 20 mg of a sample in a tared sample holder. The sample was placed on the hang-down wire of the VTI balance. A drying step was run, typically at 40° C. and 0.5-1% RH for 1 h. The isotherm temperature is 25° C. Defined % RH holds typically ranged from 10% RH to 90% RH, with intervals of 10 to 20% RII. A % weight change smaller than 0.010% over 10 min, or up to 2 h, whichever occurred first, was required before continuing to the next % RH hold. The water content of the sample equilibrated as described above was determined at each % RH hold.

Compound | paw withdrawal threshold (PWT) ([1]; 10 mg/kg orally in PEG400, paclitaxel treated rats, von Frey assay 30, 60 and 180 minutes after dosing, in comparison with vehicle and gabapentin) | time of maximum efficacy post-dosing ([1]; 10 mg/kg orally, paclitaxel treated rats, von Frey assay time course) [h] | Weight (% Change) ([2]; Sample RH […], elapsed time 46.6 min, 25.46) | Weight (% Change) ([2]; adsorption, Sample RH 29.94%, elapsed time 71.4 min) | Weight (% Change) ([2]; adsorption, Sample RH 49.86%, elapsed time 91.1 min) | Weight (% Change) ([2]; adsorption, Sample RH 69.77%, elapsed time 111.2 min) | Weight (% Change) ([2]; adsorption, Sample RH 79.70%, elapsed time 129.1 min) | Weight (% Change) ([2]; adsorption, Sample RH 89.72%, elapsed time 160.1 min) | DMS weight change ([2]; adsorption/desorption isotherm, from about 10% relative humidity (RH) to about 90% RH) | DMS weight change ([2]; after a 10% RH to 90% RH back to 10% RH cycle) | Weight (% Change) ([2]; desorption, Sample RH 10.06%, elapsed time 234.4 min) | Weight (% Change) ([2]; desorption, Sample RH 29.99%, elapsed time 218.6 min) | Weight (% Change) ([2]; desorption, Sample RH 50.07%, elapsed time 200.1 min) | Weight (% Change) ([2]; desorption, Sample RH 70.11%, elapsed time 180.1 min)
CC(C)(CO)NC(=O)c1nn(-c2ccc(F)cc2F)c2c1C[C@H]1C[C@@H]21 [Compound 493, (1aR,5aR)-2-(2,4-Difluoro-phenyl)-1a,2,5,5a-tetrahydro-1H-2,3-diaza-cyclopropa[a]pentalene-4-carboxylic Acid (2-Hydroxy-1,1-dimethyl-ethyl)-amide] | increase | 1 |  |  |  |  |  |  |  |  |  |  |  | 
CC(C)(C)[C@@H](CO)NC(=O)c1nn(-c2c[n+]([O-])ccn2)c2c1C[C@@H]1C[C@H]21 [Compound 699 (Anhydrous Form), (1aS,5aS)-2-(4-Oxy-pyrazin-2-yl)-1a,2,5,5a-tetrahydro-1H-2,3-diaza-cyclopropa[a]pentalene-4-carboxylic Acid ((S)-1-Hydroxymethyl-2,2-dimethyl-propyl)-amide] |  |  | 0 | 0.151 | 0.282 | 0.482 | 0.581 | 0.762 | 1.0% or less weight change from about 10% relative humidity | (RH) to about 90% RH; and about 0.1% or less weight change | 0.080 | 0.181 | 0.364 | 0.526
